# Legend:
# [1] = molecular target: Apoptosis regulator Bcl-2 (Homo sapiens, UniProt P10415); experiment: Inhibition of Bid-BH3 peptide binding to Bcl-2 (unknown origin) after 3 hrs by fluorescence polarization method
# [2] = molecular target: Induced myeloid leukemia cell differentiation protein Mcl-1 (Homo sapiens, UniProt Q07820); experiment: Inhibition of Bid-BH3 peptide binding to Mcl-1 (unknown origin) after 3 hrs by fluorescence polarization method
# THP-1 = experiment: Antiproliferative activity against human THP1 cells after 72 hrs by MTT assay; assay type: functional, cell-based; settings: THP-1, 72 h
# Bcl-2-like protein 1 = Bcl-2-like protein 1 (Homo sapiens, UniProt Q07817); experiment: Inhibition of Bid-BH3 peptide binding to Bcl-xL (unknown origin) after 3 hrs by fluorescence polarization method
# RS4-11 = experiment: Antiproliferative activity against human RS4:11 cells after 72 hrs by MTT assay; assay type: functional, cell-based; settings: RS4-11, 72 h
# HUVEC = experiment: Cytotoxicity against HUVEC cells after 72 hrs by MTT assay; assay type: cell-based; settings: Homo sapiens
# Jurkat [3] = experiment: Antiproliferative activity against human Jurkat cells after 72 hrs by MTT assay; assay type: functional, cell-based
# MOLT-4 = experiment: Antiproliferative activity against human MOLT4 cells after 72 hrs by MTT assay; assay type: functional, cell-based; settings: MOLT-4, 72 h
# Jurkat [4] = experiment: Induction of apoptosis in human Jurkat cells assessed as early apoptotic cells at 10 uM after 48 hrs by annexin V-FITC/PI staining based flow cytometry (reference value: 2.26%); assay type: functional
# Jurkat [5] = experiment: Induction of apoptosis in human Jurkat cells assessed as viable cells at 20 uM after 48 hrs by annexin V-FITC/PI staining based flow cytometry (reference value: 97.4%); assay type: functional; settings: read-out: Activity
# Jurkat [6] = experiment: Induction of apoptosis in human Jurkat cells after 48 hrs by annexin V-FITC/PI staining based flow cytometry; assay type: functional, cell-based
# Jurkat [7] = experiment: Induction of apoptosis in human Jurkat cells assessed as necrotic cells at 10 uM after 48 hrs by annexin V-FITC/PI staining based flow cytometry (reference value: 0.008%); assay type: functional
# Jurkat [8] = experiment: Induction of apoptosis in human Jurkat cells assessed as viable cells at 10 uM after 48 hrs by annexin V-FITC/PI staining based flow cytometry (reference value: 97.4%); assay type: functional; settings: read-out: Activity
# Jurkat [9] = experiment: Induction of apoptosis in human Jurkat cells assessed as early apoptotic cells at 20 uM after 48 hrs by annexin V-FITC/PI staining based flow cytometry (reference value: 2.26%); assay type: functional
# Jurkat [10] = experiment: Induction of apoptosis in human Jurkat cells assessed as late apoptotic cells at 10 uM after 48 hrs by annexin V-FITC/PI staining based flow cytometry (reference value: 0.31%); assay type: functional
# Jurkat [11] = experiment: Induction of apoptosis in human Jurkat cells assessed as increase in activation of caspase-3 after 48 hrs by fluorometric method; assay type: functional, cell-based
# Jurkat [12] = experiment: Induction of apoptosis in human Jurkat cells assessed as necrotic cells at 20 uM after 48 hrs by annexin V-FITC/PI staining based flow cytometry (reference value: 0.008%); assay type: functional
# Jurkat [13] = experiment: Induction of apoptosis in human Jurkat cells assessed as late apoptotic cells at 20 uM after 48 hrs by annexin V-FITC/PI staining based flow cytometry (reference value: 0.31%); assay type: functional
# Chain of Apoptosis regulator Bcl-2 (P10415 whole entry): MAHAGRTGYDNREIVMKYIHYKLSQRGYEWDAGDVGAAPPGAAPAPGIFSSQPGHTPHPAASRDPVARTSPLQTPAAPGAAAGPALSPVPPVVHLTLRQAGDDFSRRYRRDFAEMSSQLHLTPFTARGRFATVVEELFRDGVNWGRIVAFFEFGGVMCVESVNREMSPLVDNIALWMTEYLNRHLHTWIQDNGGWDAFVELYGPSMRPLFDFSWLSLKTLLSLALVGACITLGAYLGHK
# Chain of Induced myeloid leukemia cell differentiation protein Mcl-1 (Q07820 whole entry): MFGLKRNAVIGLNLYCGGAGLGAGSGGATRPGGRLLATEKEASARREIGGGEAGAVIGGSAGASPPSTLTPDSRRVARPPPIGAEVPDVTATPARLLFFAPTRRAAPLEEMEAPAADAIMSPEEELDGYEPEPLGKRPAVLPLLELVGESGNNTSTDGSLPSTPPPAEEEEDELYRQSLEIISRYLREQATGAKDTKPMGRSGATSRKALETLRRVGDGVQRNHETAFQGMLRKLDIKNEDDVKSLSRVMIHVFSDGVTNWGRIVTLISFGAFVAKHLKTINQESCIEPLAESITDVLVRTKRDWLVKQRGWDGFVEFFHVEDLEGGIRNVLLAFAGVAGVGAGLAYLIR
# Chain of Bcl-2-like protein 1 (Q07817 whole entry): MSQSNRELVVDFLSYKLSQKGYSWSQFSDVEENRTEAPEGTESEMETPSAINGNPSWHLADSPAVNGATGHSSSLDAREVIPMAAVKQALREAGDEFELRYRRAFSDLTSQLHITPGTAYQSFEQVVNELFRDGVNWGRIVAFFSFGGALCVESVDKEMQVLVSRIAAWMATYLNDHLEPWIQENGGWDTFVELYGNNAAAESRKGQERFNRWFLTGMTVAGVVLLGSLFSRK
compound,measurement,setting,value
CC(C)(C)OC(=O)N[C@@H](Cc1ccc(OCc2ccccc2)cc1)C(=O)NS(=O)(=O)c1ccc(NCCCc2ccccc2)c([N+](=O)[O-])c1,Ki,[1]; read-out: Ki,1500 nM
Cc1ccc(CC(=O)N[C@@H](Cc2ccc(OCc3ccccc3)cc2)C(=O)NS(=O)(=O)c2ccc(NCCCc3ccccc3)c([N+](=O)[O-])c2)cc1,Ki,[2],500 nM
same,IC50,THP-1,23900 nM
same,Ki,Bcl-2-like protein 1,Not Active
same,IC50,RS4-11,16800 nM
same,IC50,HUVEC,> 50000 nM
same,IC50,Jurkat [3],23800 nM
same,Ki,[1]; read-out: Ki,450 nM
same,IC50,MOLT-4,> 50000 nM
O=C(N[C@@H](Cc1ccc(OCc2ccc(-c3ccccc3)cc2)cc1)C(=O)NS(=O)(=O)c1ccc(NC2CCCCC2)c([N+](=O)[O-])c1)c1ccc2ccccc2c1,Ki,[1],Not Active
Cc1ccc(CC(=O)N[C@@H](Cc2ccc(OCc3ccc(-c4ccccc4)cc3)cc2)C(=O)NS(=O)(=O)c2ccc(NCCCc3ccccc3)c([N+](=O)[O-])c2)cc1,Activity,Jurkat [4],5.48%
same,Ki,[2],190 nM
same,viability at 20 µM,Jurkat [5],77.8%
same,IC50,THP-1,6460 nM
same,Ki,Bcl-2-like protein 1,Not Active
same,Activity,Jurkat [6],Dose-dependent effect
same,Activity,Jurkat [7],0.037%
same,IC50,RS4-11,3390 nM
same,IC50,HUVEC,> 50000 nM
same,IC50,Jurkat [3],3370 nM
same,viability at 10 µM,Jurkat [8],93.8%
same,Ki,[1]; read-out: Ki,450 nM
same,Activity,Jurkat [9],20.8%
same,Activity,Jurkat [10],0.72%
same,IC50,MOLT-4,8360 nM
same,Activity,Jurkat [11],Dose-dependent effect
same,Activity,Jurkat [12],0%
same,Activity,Jurkat [13],1.42%
Cl.N#Cc1ccc(COc2ccc(C[C@H](N)C(=O)NS(=O)(=O)c3ccc(NC4CCCC4)c([N+](=O)[O-])c3)cc2)cc1,Ki,[1],Not Active
O=C(N[C@@H](Cc1ccc(OCc2ccc(-c3ccccc3)cc2)cc1)C(=O)NS(=O)(=O)c1ccc(Cl)c([N+](=O)[O-])c1)c1ccc2ccccc2c1,Ki,[1]; read-out: Ki,570 nM
CC(C)(C)OC(=O)N[C@@H](Cc1ccc(OCc2ccc(C#N)cc2)cc1)C(=O)NS(=O)(=O)c1ccc(NCCCc2ccccc2)c([N+](=O)[O-])c1,Ki,[1]; read-out: Ki,800 nM
CC(C)(C)OC(=O)N[C@@H](Cc1ccc(OCc2ccc(-c3ccccc3)cc2)cc1)C(=O)NS(=O)(=O)c1ccc(NCCCc2ccccc2)c([N+](=O)[O-])c1,Ki,[1],Not Active
Cl.N#Cc1ccc(COc2ccc(C[C@H](N)C(=O)NS(=O)(=O)c3ccc(NCCCc4ccccc4)c([N+](=O)[O-])c3)cc2)cc1,Ki,[1],Not Active
CC(C)(C)OC(=O)N[C@@H](Cc1ccc(OCc2ccc(-c3ccccc3)cc2)cc1)C(=O)NS(=O)(=O)c1ccccc1,Ki,[1]; read-out: Ki,5200 nM
CC(C)(C)OC(=O)N[C@@H](Cc1ccc(OCc2ccc(Oc3ccccc3)cc2)cc1)C(=O)NS(=O)(=O)c1ccc(NC2CCCCC2)c([N+](=O)[O-])c1,Ki,[1],Not Active
Cc1ccc(-c2ccc(COc3ccc(C[C@H](NC(=O)OC(C)(C)C)C(=O)NS(=O)(=O)c4ccc(Cl)c([N+](=O)[O-])c4)cc3)cc2)cc1,Ki,[1]; read-out: Ki,390 nM
N#Cc1ccc(COc2ccc(C[C@H](NC(=O)c3ccc4ccccc4c3)C(=O)NS(=O)(=O)c3ccc(NCCCc4ccccc4)c([N+](=O)[O-])c3)cc2)cc1,Ki,[1],Not Active
Cl.N[C@@H](Cc1ccc(OCc2ccccc2)cc1)C(=O)NS(=O)(=O)c1ccc(NCCCc2ccccc2)c([N+](=O)[O-])c1,Ki,[1],Not Active
Cc1ccc(-c2ccc(COc3ccc(C[C@H](NC(=O)OC(C)(C)C)C(=O)NS(=O)(=O)c4ccc(NCCOc5ccccc5)c([N+](=O)[O-])c4)cc3)cc2)cc1,Ki,[1]; read-out: Ki,850 nM
Cl.N[C@@H](Cc1ccc(OCc2ccc(-c3ccccc3)cc2)cc1)C(=O)NS(=O)(=O)c1ccc(Cl)c([N+](=O)[O-])c1,Ki,[1],Not Active
CC(C)(C)OC(=O)N[C@@H](Cc1ccc(OCc2ccc(-c3ccc(Cl)cc3)cc2)cc1)C(=O)NS(=O)(=O)c1ccc(Cl)c([N+](=O)[O-])c1,Ki,[1]; read-out: Ki,580 nM
Cc1ccc(CC(=O)N[C@@H](Cc2ccc(OCc3ccc(-c4ccccc4)cc3)cc2)C(=O)NS(=O)(=O)c2ccc(Cl)c([N+](=O)[O-])c2)cc1,Ki,[1]; read-out: Ki,1100 nM
CC(C)(C)OC(=O)N[C@@H](Cc1ccc(OCc2ccc(-c3ccccc3)cc2)cc1)C(=O)NS(=O)(=O)c1ccc(NC2CCCCC2)c([N+](=O)[O-])c1,Ki,[1],Not Active
O=C(N[C@@H](Cc1ccc(OCc2ccc(-c3ccccc3)cc2)cc1)C(=O)NS(=O)(=O)c1ccc(Cl)c([N+](=O)[O-])c1)c1cccnc1,Ki,[1]; read-out: Ki,580 nM
CC(C)(C)OC(=O)N[C@@H](Cc1ccc(OCc2ccc(Oc3ccccc3)cc2)cc1)C(=O)NS(=O)(=O)c1ccc(Cl)c([N+](=O)[O-])c1,Ki,[1]; read-out: Ki,700 nM
Cl.N[C@@H](Cc1ccc(OCc2ccc(-c3ccccc3)cc2)cc1)C(=O)NS(=O)(=O)c1ccc(NCCCc2ccccc2)c([N+](=O)[O-])c1,Ki,[1],Not Active
CC(C)(C)OC(=O)N[C@@H](Cc1ccc(OCc2ccc(-c3ccccc3)cc2)cc1)C(=O)NS(=O)(=O)c1ccc(Cl)c([N+](=O)[O-])c1,Ki,[2],450 nM
same,IC50,THP-1,27200 nM
same,Ki,Bcl-2-like protein 1,Not Active
same,IC50,RS4-11,14000 nM
same,IC50,HUVEC,> 50000 nM
same,IC50,Jurkat [3],23500 nM
same,Ki,[1]; read-out: Ki,620 nM
same,IC50,MOLT-4,44400 nM
CC(C)(C)OC(=O)N[C@@H](Cc1ccc(OCc2ccc(C#N)cc2)cc1)C(=O)NS(=O)(=O)c1ccc(NC2CCCC2)c([N+](=O)[O-])c1,Ki,[1],Not Active
CC(C)(C)OC(=O)N[C@@H](Cc1ccc(OCc2ccccc2)cc1)C(=O)NS(=O)(=O)c1ccc(Cl)c([N+](=O)[O-])c1,Ki,[1],Not Active
CCCCCC(=O)N[C@@H](Cc1ccc(OCc2ccc(-c3ccccc3)cc2)cc1)C(=O)NS(=O)(=O)c1ccc(Cl)c([N+](=O)[O-])c1,Ki,[1]; read-out: Ki,560 nM
N#Cc1ccc(COc2ccc(C[C@H](NC(=O)Cc3ccc(-c4ccccc4)cc3)C(=O)NS(=O)(=O)c3ccc(NC4CCCC4)c([N+](=O)[O-])c3)cc2)cc1,Ki,[1]; read-out: Ki,610 nM
Cc1ccc(-c2ccc(COc3ccc(C[C@H](NC(=O)OC(C)(C)C)C(=O)NS(=O)(=O)c4ccc(NCC5CCCCC5)c([N+](=O)[O-])c4)cc3)cc2)cc1,Ki,[1],Not Active
Cl.N[C@@H](Cc1ccc(OCc2ccc(-c3ccccc3)cc2)cc1)C(=O)NS(=O)(=O)c1ccc(NC2CCCCC2)c([N+](=O)[O-])c1,Ki,[1],Not Active
